Data as given in US12440451B2, “Compositions and methods using an epigenetic inhibitor” (DANA-FARBER CANCER INSTITUTE, INC., priority 2017, dated 2025).

Experiments:
Type in all cases: cell-based, mouse
OT-I+ CD8+ T cells = assay: in vitro CD8+ T cell activation assay with SIINFEKL-pulsed BMDCs, flow cytometry for effector markers
Text: To screen for compounds that may inhibit epigenetic enzymes, an in vitro model of T cell activation by antigen-loaded antigen presenting cells (APCs) was used. CD8^+ T cells were harvested from OT-I T cell receptor transgenic mice. OT-I mice are transgenic for the mouse Tera-V2 and Torb-V5 genes, which form a T cell receptor that recognizes the SIINFEKL peptide (SEQ ID NO: 1) epitope of chicken ovalbumin presented in the context of the Kb MHC I molecule. This allows testing of T cell activation in response to addition of SIINFEKL peptide (SEQ ID NO: 1). The APCs used for T cell activation were bone marrow-derived dendritic cells (BMDCs) harvested from congenic H-2b-MHC haplotype C57BL/6 (B6) mice.
To set up the screen, BMDCs were harvested, irradiated, and seeded into 96-well tissue culture plates (5×10^4/well) in the presence of 200 nM SIINFEKL peptide (SEQ ID NO: 1) for antigen loading. OT-I^+ CD8^+ T cells were freshly isolated from peripheral lymphoid organs of OT-I mice and added to the BMDCs in 96-well plates (5×10^4/well). One hundred epigenetic inhibitor drugs from a custom library provided by Dr. David Fisher (Massachusetts General Hospital, Boston, MA) were added separately to individual wells for a final concentration of 10 μM or 1 μM. Negative (non-drug treated) wells were given an equivalent volume of DMSO vehicle.
The OT-I^+ CD8^+ T cells were cultured for 10 days at 37° C., with media changes at days 3, 5, and 7. After 10 days, T cells were collected from the 96-well plates and analyzed by flow cytometry for markers of cell viability, effector differentiation, cytokine secretion, and cytotoxicity.
For each marker assessed, a change of greater than two standard deviations from the mean of the negative control wells was deemed a significant change.
To validate the phenotypic changes observed with RGFP966 treatment during the screen, the in vitro activation assay was repeated to compare T cells treated with RGFP966 with vehicle-treated control cells. OT-I^+ CD8^+ T cells were activated with SIINFEKL-pulsed BMDCs as in Example 1 for 7 days, with media changes at days 3 and 5. T cells were then collected and analyzed by flow cytometry for markers of effector differentiation (CD25, PD-1), cytokine secretion (IFN-γ, TNF-α, IL-2), and cytotoxicity (granzyme B).
An additional study was done on the effects of RGFP966 on T cell expression of phenotypic markers of CD8^+ effector differentiation. T cells were treated with RGFP966 and vehicle using the in vitro activation assay and flow cytometry techniques described above. OT-I^+ CD8^+ T cells were activated with SIINFEKL-pulsed BMDCs (see above) for 7 days, with media changes at days 3 and 5. T cells were collected and analyzed by flow cytometry for markers of effector differentiation (CD25, PD-1), cytokine secretion (IFN-γ, TNF-α, IL-2), and cytotoxicity (granzyme B).
OT-I^+ CD8^+ T cells were activated with antigen-pulsed BMDCs as described above, and dosed with RGFP966 for different durations of time as depicted in the schematic diagram of FIG. 7A: dose duration A of RGFP966 exposure was from day 0 to day 7 of co-culture: dose duration B of RGFP966 exposure was from day 3 to day 7 of co-culture: dose duration C of RGFP966 exposure was from day 5 to day 7 of co-culture: dose duration D of RGFP966 exposure was from day 0 to day 3 of co-culture: dose duration E of RGFP966 exposure was from day 0 to day 5 of co-culture. These time windows (dose durations A-E) correspond roughly to the early (day 0 to 3), mid-(day 3 to 5), and late (day 5 to 7) phases of T cell activation described in the literature.
T cells were thoroughly washed with culture media during media changes at a transition point (i.e. drug to no drug or vice versa). T cells in samples D and E (light gray arrows) were re-suspended in conditioned media from parallel cultures of DMSO vehicle-treated T cells in order to maintain similar levels of T cell activating cytokines in the media. […]

[1] = tested on: H3K9-Ac and H3K27-Ac in CD8+ T cells; assay: ChIP-qPCR for H3K9ac and H3K27ac at promoter regions of 32 effector function genes; settings: 3 μM, 5 days
Protocol: Chromatin was extracted from sorted CD8^+ T cells activated with or without RGFP966 for 5 days as described in FIG. 1 and Example 1 above, and chromatin immunoprecipitation (ChIP) was performed for H3K9ac and H3K27 markers.
Immunoprecipitated chromatin was analyzed using quantitative real-time PCR (qPCR) with primer probes for the promoter regions of a custom set of 32 genes known to be associated with various aspects of CD8^+ T cell effector function (effector cytokines, cytotoxicity, regulatory transcription factors, as well as positive and negative controls for data quality control). […] Histogram bars are presented in pairs for each marker, with the left hand bar of each pair (gray) representing data from untreated CD8^+ T cells and the right hand bar of each pair (black) representing data from CD8^+ T cells treated with 3 μM RGF966.

H3K27-ac in CD8+ T cells = assay: H3K27-ac ChIP-sequencing of activated CD8+ T cells; settings: days 5 and 7 post-activation
Protocol: ChIP-sequencing was then performed to survey the genomic landscape of H3K27 acetylation in the absence or the presence of HDAC3 activity on days 5 and 7 post-activation using the same in vitro activation co-culture system as in as described in FIG. 1 and Example 1 above.
FIGS. 9C-9H show H3K27-ac ChIP-sequence tracks, from top to bottom: naïve CD8^+ T cells (day 0): control-treated cells, day 5 post-activation: RGFP966-treated cells, day 5 post-activation: control-treated cells, day 7 post-activation: RGFP966-treated cells, day 7 post-activation. Arrows under gene names indicate direction of transcription. Tracks were visualized with the IGV genome browser (Broad Institute, MA).

[2] = 10 μM, 7 days activation, relative to DMSO-treated cells

For Nc1cc(F)ccc1NC(=O)/C=C/c1cnn(C/C=C/c2ccccc2)c1 [RGFP966], the “TNF-α expression measured in pg/mL” value (OT-I+ CD8+ T cells; 10 μM compared with 1 μM or vehicle, FIG. 2J) was “increased expression of the activation marker TNF-α”, the CD25 expression (OT-I+ CD8+ T cells; [2]) was “higher levels” and the IFN-γ expression (OT-I+ CD8+ T cells; [2]) was “higher levels”. The IL-2 expression (OT-I+ CD8+ T cells; [2]) was “higher levels”, the PD-1 expression (OT-I+ CD8+ T cells; [2]) was “higher levels” and the TNF-α expression (OT-I+ CD8+ T cells; [2]) was “higher levels”. The “granzyme B expression” value (OT-I+ CD8+ T cells; [2]) was “more of the cytotoxic effector protein granzyme B”, the “expression of CD25 and TNF-α when the drug is washed out midway” value (OT-I+ CD8+ T cells; 10 μM, exposure day 0 to 3 or day 0 to 5, relative to all 7 days) was “did not reduce the expression of CD25 and TNF-α” and the “expression of markers of T cell activation (CD25, TNF-α) when dosing starts at later time points” value (OT-I+ CD8+ T cells; 10 μM, exposure from day 3 or day 5 to day 7) was “reduce the expression of markers of T cell activation”. The “expression of CD44 and CD62L” value (OT-I+ CD8+ T cells; 10 μM, flow cytometry, FIG. 2A, vs vehicle) was “high expression of CD62L and intermediate to high expression of CD44”, the CD107a positive cells (OT-I+ CD8+ T cells; 10 μM, flow cytometry, FIG. 2B, vs vehicle) was “many more CD107a positive cells than the vehicle controls” and the TNF-α positive cells (OT-I+ CD8+ T cells; 10 μM, flow cytometry, FIG. 2C, vs untreated) was “larger number of TNF-α positive cells than the untreated T cells”. The “effector phenotype of CD8+ T cells in the secondary screen” value (OT-I+ CD8+ T cells; 10 μM, screen of HDAC inhibitors) was “consistently augmented the effector phenotype”, the “dose sufficient to augment the effector phenotype of CD8+ T cells” value (OT-I+ CD8+ T cells; in vitro activation, titration 0, 1, 3, 5 μM) was 3 µM and the “dose at which the dose-dependent augmentation of the T cell effector phenotype begins” value (OT-I+ CD8+ T cells; titration 0, 1, 3, 5 μM, 7 days) was “greater than 1 μM”. For the same molecule, the “percentage of actively proliferating cells measured by Ki-67 expression” value (OT-I+ CD8+ T cells; with increasing drug dose, titration 0, 1, 3, 5 μM) was “reduction in the percentage of actively proliferating cells”, the “histone acetylation at GZMB, FASL, TBX21, PRDM1 and ID2” value [1] was “most significant changes in histone acetylation” and the “H3K9 and H3K27 acetylation at promoters of IFN-γ, TNF-α and IL-2” value ([1]; not always significant) was “generally had increased H3K9 and H3K27 acetylation”. For the same molecule, the “H3K27-ac at GzmB, Fasl, ID2, PRDM1 and TBX21” value (H3K27-ac in CD8+ T cells) was “increased H3K27-ac”, the “H3K27-ac at RUNX3” value (H3K27-ac in CD8+ T cells) was “increased H3K27-ac” and the “H3K27ac at loci of effector cytokines, EOMES and BCL6” value (H3K27-ac in CD8+ T cells; data not shown) was “no significant changes”.
